Here are results for four compounds from ChEMBL document CHEMBL3880394, “Benzazole derivatives and their use as jnk modulators” (2003).

Experiment [1] in a line: Antiinflammatory activity in human Jurkat cells assessed as inhibition of PMA/ionomycine-induced IL2 production preincubated for 30 mins followed by PMA/ionomycine induction measured after 24 hrs by ELISA relative to control. Type of experiment: functional. On the technique in general: An ELISA detects its analyte on a solid surface through an enzyme-linked reagent.
A short description of experiment [2]: Neuroprotective activity against NGF, arabinosine deficiency and anti NGF antibody-mediated cell death in sympathetic neurons from new born rat superior cervical ganglia assessed as survival rate after 24 hrs by MTT assay relative to control. It counts as functional, Sympathetic neuron. In general terms: Tetrazolium assays rely on reduction of a dye to a coloured formazan, in cell work by metabolically active cells.

`N#CC(c1ccnc(Cl)n1)c1nc2ccccc2s1` (stereo not given): the “inhibition (INH)” value in experiment [1] is more than 30%. In experiment [2], the Survival entry is “<=80%”.

On to `N#CC(c1ccnc(OCc2ccccn2)n1)c1nc2ccccc2s1` (stereo not given), for which, in experiment [1], the “inhibition (INH)” value is reported as more than 30%.

With `N#CC(c1ccnc(OCc2ccc(Cl)c(Cl)c2)n1)c1nc2ccccc2s1` (stereo not given), the Survival entry in experiment [2] is recorded as “<=80%”.

Regarding `N#CC(c1ccnc(NCCCn2ccnc2)n1)c1nc2ccccc2s1` (stereo not given), the Survival entry in experiment [2] is given as “<=80%”.
